As usually defined, the Ki is the dissociation constant of the complex between target and ligand, obtained from inhibition or displacement. A word on the Emax: it is the greatest response seen or fitted, relative to the assay's reference.

One compound from ChEMBL document CHEMBL4041469, “The replacement of the 2-methoxy substituent of N-((6,6-diphenyl-1,4-dioxan-2-yl)methyl)-2-(2-methoxyphenoxy)ethan-1-amine improves the selectivity for 5-HT1A receptor over α1-adrenoceptor and D2-like receptor subtypes” (Eur J Med Chem, 2017) can be followed below.

A short description of experiment [1]: Selectivity index, ratio of Ki for recombinant human D3 receptor expressed in HEK293 cell membranes to Ki for recombinant human 5HT1A receptor expressed in human HeLa cell membranes.
Experiment [2] relates to Mus musculus. In words: Anxiolytic activity in ip dosed CD-1 mouse assessed as increase in time spent in light area administered 30 mins prior to test by light/dark exploration test. Format: functional, organism-based.
The target of experiment [3] is T1, Alpha-1B adrenergic receptor (Homo sapiens, UniProt P35368).
T1 sequence (P35368 whole entry): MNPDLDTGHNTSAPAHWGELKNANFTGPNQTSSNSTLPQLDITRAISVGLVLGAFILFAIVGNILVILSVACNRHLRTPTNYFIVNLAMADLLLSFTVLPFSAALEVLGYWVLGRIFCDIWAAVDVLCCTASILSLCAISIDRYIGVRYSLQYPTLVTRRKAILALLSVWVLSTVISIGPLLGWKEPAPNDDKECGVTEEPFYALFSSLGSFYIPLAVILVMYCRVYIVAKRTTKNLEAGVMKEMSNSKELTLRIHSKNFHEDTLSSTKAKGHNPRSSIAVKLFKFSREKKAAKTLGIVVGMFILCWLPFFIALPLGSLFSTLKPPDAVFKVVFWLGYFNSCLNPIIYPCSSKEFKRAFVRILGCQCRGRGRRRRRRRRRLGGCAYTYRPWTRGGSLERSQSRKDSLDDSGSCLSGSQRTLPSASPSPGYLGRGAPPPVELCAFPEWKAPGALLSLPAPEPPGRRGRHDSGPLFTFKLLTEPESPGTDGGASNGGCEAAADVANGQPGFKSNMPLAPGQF
In words: Displacement of [3H]prazosin from recombinant human alpha-1b adrenergic receptor expressed in CHO cell membranes after 30 mins by liquid scintillation counting method. For orientation: Loss of bound radioactivity is the signal in a displacement assay; it reports binding, not function.

Experiment [4] can be described thus: Selectivity index, ratio of Ki for recombinant human D2 receptor expressed in HEK293 cell membranes to Ki for recombinant human 5HT1A receptor expressed in human HeLa cell membranes.
The target of a further experiment is D(3) dopamine receptor (Homo sapiens, UniProt P35462). Put plainly: Displacement of [3H]N-methylspiperone from recombinant human D3 receptor expressed in HEK293 cell membranes after 1 hr by liquid scintillation counting method.
Sequence of D(3) dopamine receptor (P35462 whole entry): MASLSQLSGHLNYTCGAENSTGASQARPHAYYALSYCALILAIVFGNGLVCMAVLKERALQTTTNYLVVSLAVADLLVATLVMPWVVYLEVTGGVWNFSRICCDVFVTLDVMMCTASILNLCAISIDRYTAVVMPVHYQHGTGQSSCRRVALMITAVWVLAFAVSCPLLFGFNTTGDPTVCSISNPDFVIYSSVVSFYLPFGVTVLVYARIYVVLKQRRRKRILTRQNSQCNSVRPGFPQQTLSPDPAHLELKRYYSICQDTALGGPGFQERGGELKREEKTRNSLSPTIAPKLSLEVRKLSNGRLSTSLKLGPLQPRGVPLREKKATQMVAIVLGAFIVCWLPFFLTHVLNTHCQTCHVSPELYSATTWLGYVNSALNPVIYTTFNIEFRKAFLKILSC
Experiment [5] in a line: Selectivity index, ratio of Ki for recombinant human alpha-1b adrenergic receptor expressed in CHO cell membranes to Ki for recombinant human 5HT1A receptor expressed in human HeLa cell membranes.
Experiment [6] is described as follows: Selectivity index, ratio of Ki for recombinant human alpha-1d adrenergic receptor expressed in CHO cell membranes to Ki for recombinant human 5HT1A receptor expressed in human HeLa cell membranes.
In experiment [7] the target is T2, Alpha-1A adrenergic receptor (Homo sapiens, UniProt P35348).
T2 sequence (P35348 whole entry): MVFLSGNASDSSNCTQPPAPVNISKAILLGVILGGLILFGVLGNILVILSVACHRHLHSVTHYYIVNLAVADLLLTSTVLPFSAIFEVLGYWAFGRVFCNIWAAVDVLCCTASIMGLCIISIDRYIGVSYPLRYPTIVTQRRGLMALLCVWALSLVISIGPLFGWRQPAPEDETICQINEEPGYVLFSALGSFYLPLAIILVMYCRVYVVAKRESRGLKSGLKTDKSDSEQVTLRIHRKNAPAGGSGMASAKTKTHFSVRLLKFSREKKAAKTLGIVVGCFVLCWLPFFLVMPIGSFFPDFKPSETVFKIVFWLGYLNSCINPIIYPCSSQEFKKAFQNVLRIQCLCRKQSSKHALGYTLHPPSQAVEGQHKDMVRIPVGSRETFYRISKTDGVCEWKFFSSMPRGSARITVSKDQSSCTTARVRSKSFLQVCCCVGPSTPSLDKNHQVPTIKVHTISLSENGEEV
In words: Displacement of [3H]prazosin from recombinant human alpha-1a adrenergic receptor expressed in CHO cell membranes after 30 mins by liquid scintillation counting method.

Experiment [8] deals with T3, 5-hydroxytryptamine receptor 1A (Homo sapiens) (UniProt P08908).
T3 sequence (whole entry): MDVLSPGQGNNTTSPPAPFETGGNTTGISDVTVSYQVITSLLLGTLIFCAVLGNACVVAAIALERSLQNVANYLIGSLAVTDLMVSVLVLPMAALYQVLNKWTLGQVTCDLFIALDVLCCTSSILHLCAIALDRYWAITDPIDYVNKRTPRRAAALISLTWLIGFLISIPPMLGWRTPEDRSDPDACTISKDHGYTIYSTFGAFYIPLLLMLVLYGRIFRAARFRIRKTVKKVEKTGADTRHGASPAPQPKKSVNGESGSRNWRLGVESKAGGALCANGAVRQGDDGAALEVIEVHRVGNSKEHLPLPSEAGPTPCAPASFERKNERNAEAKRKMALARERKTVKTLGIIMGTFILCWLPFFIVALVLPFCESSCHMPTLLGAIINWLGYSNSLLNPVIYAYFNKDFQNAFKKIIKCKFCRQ
Put plainly: Agonist activity at recombinant human 5HT1A receptor expressed in human HeLa cell membranes assessed as stimulation of [35S]GTPgammaS binding preincubated for 20 mins followed by [35S]GTPgammaS addition measured after 30 mins by liquid scintillation counting method. The experiment is classed as functional.

A short description of experiment [9]: Selectivity index, ratio of Ki for recombinant human D4 receptor expressed in HEK293 cell membranes to Ki for recombinant human 5HT1A receptor expressed in human HeLa cell membranes.
Experiment [10] in a line: Selectivity index, ratio of Ki for recombinant human alpha-1a adrenergic receptor expressed in CHO cell membranes to Ki for recombinant human 5HT1A receptor expressed in human HeLa cell membranes.
The target of experiment [11] is T3, 5-hydroxytryptamine receptor 1A (Homo sapiens). In words: Agonist activity at recombinant human 5HT1A receptor expressed in human HeLa cell membranes assessed as stimulation of [35S]GTPgammaS binding up to 10 uM preincubated for 20 mins followed by [35S]GTPgammaS addition measured after 30 mins by liquid scintillation counting method relative to 5-HT. The experiment is classed as functional. In general terms: Binding of GTPγS marks nucleotide exchange on a G protein.

The target of another experiment is T4, D(4) dopamine receptor (Homo sapiens, UniProt P21917).
T4 sequence (P21917 whole entry): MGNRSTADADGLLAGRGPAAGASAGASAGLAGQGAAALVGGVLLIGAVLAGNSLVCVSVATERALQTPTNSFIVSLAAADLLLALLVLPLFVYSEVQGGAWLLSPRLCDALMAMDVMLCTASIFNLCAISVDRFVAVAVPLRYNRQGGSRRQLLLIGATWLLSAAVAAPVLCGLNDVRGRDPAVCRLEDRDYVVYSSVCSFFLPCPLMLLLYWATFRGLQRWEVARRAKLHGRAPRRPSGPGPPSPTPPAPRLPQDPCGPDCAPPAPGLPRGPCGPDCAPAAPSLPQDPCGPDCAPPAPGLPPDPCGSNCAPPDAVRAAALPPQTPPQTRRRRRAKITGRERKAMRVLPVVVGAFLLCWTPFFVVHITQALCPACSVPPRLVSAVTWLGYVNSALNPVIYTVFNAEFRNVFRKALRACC
In words: Displacement of [3H]N-methylspiperone from recombinant human D4 receptor expressed in HEK293 cell membranes after 1 hr by liquid scintillation counting method.

In experiment [12] the test system is Mus musculus. Put plainly: Anxiolytic activity in ip dosed CD-1 mouse assessed as increase in latency time to enter dark area administered 30 mins prior to test by light/dark exploration test. Format: functional, organism-based.
The next experiment addresses D(2) dopamine receptor (Homo sapiens, UniProt P14416). Put plainly: Displacement of [3H]N-methylspiperone from recombinant human D2 receptor expressed in HEK293 cell membranes after 1 hr by liquid scintillation counting method.

Sequence of D(2) dopamine receptor (P14416 whole entry): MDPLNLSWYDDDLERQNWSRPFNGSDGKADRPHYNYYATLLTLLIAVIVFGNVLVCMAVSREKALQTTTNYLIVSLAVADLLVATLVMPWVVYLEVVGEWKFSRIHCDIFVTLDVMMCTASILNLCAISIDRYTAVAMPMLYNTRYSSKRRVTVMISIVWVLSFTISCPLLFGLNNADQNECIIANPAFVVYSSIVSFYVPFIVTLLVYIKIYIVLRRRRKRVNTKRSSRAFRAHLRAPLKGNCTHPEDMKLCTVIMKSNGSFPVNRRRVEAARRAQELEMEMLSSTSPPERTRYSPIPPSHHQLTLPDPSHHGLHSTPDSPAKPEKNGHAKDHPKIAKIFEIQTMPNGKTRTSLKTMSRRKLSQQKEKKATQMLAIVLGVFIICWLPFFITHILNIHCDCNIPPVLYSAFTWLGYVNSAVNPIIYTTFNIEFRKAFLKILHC

For `COCOc1ccccc1OCCNCC1COCC(c2ccccc2)(c2ccccc2)O1` (racemic), the “Ratio Ki” value in experiment [1] is recorded as 105; in experiment [4], 166; in [5] it was 457; in [6], 126; in experiment [9] it was 81; in experiment [10], 447. The Activity entry in the experiment on Mus musculus [2] and in the experiment on Mus musculus [12] was “Dose-dependent effect” throughout. In addition, the inhibitory constant (Ki) in [3] is 288 nM; on D(3) dopamine receptor, 66.1 nM; in experiment [7] it was 282 nM; at D(4) dopamine receptor, 51.3 nM; at D(2) dopamine receptor it was 105 nM. Moreover, the pD2 in experiment [8] turned out to be 9.41. Further, in experiment [11], the maximum response (Emax) turned out to be 62.8%.
